In experiment [1] the test system is castrated male Sprague Dawley rats. The experiment is described as follows: Ventral Prostate and Seminal Vesicle Weight In Vivo Assay. The arrangement: species or system rat; key: active: non weight adjusted prostate weight was ≦40 mg or the % Inhibition prostate weight, body weight adjusted was ≧40% @ 2 mg/day dosage; inactive: they did not meet the specified criteria defined above. To be noted: immature castrated male rats, once daily for five days, with testosterone propionate 2 mg/kg subcutaneously. As for the experimental part:
Immature (approximately 50 g) castrated male Sprague Dawley rats (Charles River) were treated once daily for five days with test compound (usually given orally at 40 mg/kg in a volume of 0.3 mL, in 30% cyclodextrin or 0.5% methylcellulose vehicle) and with testosterone propionate (given subcutaneously by injection at the nape of the neck at 2 mg/kg, in a volume of 0.1 mL in sesame oil). On the sixth day, the rats were euthanized by asphyxiation in carbon dioxide. Ventral prostates and seminal vesicles were removed and their wet weights determined.
A test compound was said to be “active” if the non weight adjusted prostate weight was ≦40 mg or the % Inhibition prostate weight, body weight adjusted was ≧40% @ 2 mg/day dosage.

Experiment [2] deals with T1, androgen receptor (Rattus norvegicus, UniProt P15207).
T1 sequence (P15207 1-902): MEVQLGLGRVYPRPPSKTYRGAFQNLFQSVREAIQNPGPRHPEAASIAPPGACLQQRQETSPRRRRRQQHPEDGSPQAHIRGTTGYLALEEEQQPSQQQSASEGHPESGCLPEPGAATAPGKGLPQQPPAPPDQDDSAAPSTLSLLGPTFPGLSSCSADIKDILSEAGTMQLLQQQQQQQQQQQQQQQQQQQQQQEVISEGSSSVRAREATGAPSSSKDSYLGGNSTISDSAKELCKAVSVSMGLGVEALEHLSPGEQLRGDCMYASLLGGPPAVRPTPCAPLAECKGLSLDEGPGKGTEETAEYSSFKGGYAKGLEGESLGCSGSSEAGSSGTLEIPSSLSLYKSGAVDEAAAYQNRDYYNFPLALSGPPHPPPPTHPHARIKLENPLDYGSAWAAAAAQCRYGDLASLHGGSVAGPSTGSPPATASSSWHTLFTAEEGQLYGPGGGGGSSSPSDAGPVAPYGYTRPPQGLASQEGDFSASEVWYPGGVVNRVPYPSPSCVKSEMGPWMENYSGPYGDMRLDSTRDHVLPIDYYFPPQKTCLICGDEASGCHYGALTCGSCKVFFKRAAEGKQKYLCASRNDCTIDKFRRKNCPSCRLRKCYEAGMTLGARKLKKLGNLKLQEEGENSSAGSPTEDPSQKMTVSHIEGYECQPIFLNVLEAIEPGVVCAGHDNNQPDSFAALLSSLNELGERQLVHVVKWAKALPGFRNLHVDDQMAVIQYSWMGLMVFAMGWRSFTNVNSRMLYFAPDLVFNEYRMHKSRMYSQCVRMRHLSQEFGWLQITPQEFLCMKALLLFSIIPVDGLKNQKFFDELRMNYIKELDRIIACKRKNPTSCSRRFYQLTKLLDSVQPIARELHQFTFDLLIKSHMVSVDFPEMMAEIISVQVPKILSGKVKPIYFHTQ
Put plainly: L929 Androgen Receptor Functional Assay, Adenovirus Transduction. It counts as cell-based. Also on record: expressed in transfected cells; host or cells: L929 cells transduced with adenovirus AdEasy+rAR. As to conditions: concentration of 3000 nM; for % Activity: L929 agonist testing; for % Inhibition: L929 antagonist testing with R1881. The method, then: L929 cells were plated in 96-well plates at 20,000 cells per well, in DMEM/F12 (GIBCO) containing 10% (v/v) charcoal-treated fetal bovine serum (Hyclone) and lacking phenol red. The plates were then incubated overnight at 37° C. in 5% (v/v) humidified CO2.
Test compound dilutions were prepared in 100% (v/v) DMSO, if necessary. Each dilution was made to 1250× the final desired assay concentration.
First, 2 mL of DMEM/F12 lacking phenol red was pipetted into the wells of a 2-mL 96-well assay block. Next, 4 μL of the 1250× test compound dilutions were pipetted into each well of the assay block. The mixtures within the well were then carefully mixed by pipette.
In a 15 mL or 50 mL sterile centrifuge tube, a 2.5 nM (2.5×) dilution of R1881 (methyl-trienolone) in DMEM/F12 lacking phenol red was prepared.
In a second 15 mL or 50 mL centrifuge tube a solution containing an equal volume of DMEM to the first and an equal volume of 100% (v/v) DMSO to the volume of R1881 used in the first tube was prepared.
In a 15 mL or 50 mL sterile centrifuge tube, a dilution in DMEM/F12 of the adenovirus AdEasy+rAR at an moi of 1:500 per well was prepared.
The medium was removed from the 96-well plates by inversion and dried, inverted, very briefly. As soon as possible after medium removal, 40 μL of the diluted unlabeled test compound was added to each well, in duplicate. To each well designated for antagonist testing was added 40 μL of the 2.5 nM R1881 dilution to the wells for antagonist testing. To each well designated for agonist testing was added 40 μL of the DMSO dilution. Then 20 μL of the diluted adenovirus were added to all wells. The plates were incubated for 48 hours at 37° C. in 5% (v/v) humidified CO2.
To each well was added 100 μL of Steady-Glo luciferase assay substrate (Promega) and the plates were placed on a rotary shaker for 1 min. The plates were then incubated at room temperature in the dark for one hour. The contents of each well were then transferred to a white microtiter plate (Packard) and read on a Luminoskan Ascent (Thermo Lab Systems).
L929 AR percent activity was determined by testing dilutions of the test compound using a concentration of 3000 nM unless otherwise noted. L929 percent inhibition was determined by testing dilutions of the test compound using a concentration of 3000 nM. […] Luciferase activity per well were measured and EC50s and IC50s determined by linear regression.

Experiment [3] deals with T1, androgen receptor. Put plainly: COS-7 Whole-Cell Androgen Receptor Binding Assay, Adenovirus Transduction. To be noted: COS Binding; for % Inhibition: concentration of 3000 nM unless otherwise noted. As for the experimental part:
COS-7 cells were plated in 96-well plates at 20,000 cells per well, in a solution of DMEM/F12 (GIBCO) containing 10% (v/v) charcoal-treated fetal bovine serum (Hyclone) and lacking phenol red. The cells were then incubated overnight at 37° C. in 5% (v/v) humidified CO2.
Test compound solutions were prepared by diluting the test compound in 100% (v/v) DMSO, if necessary.
Next, 1 mL of DMEM/F12 lacking phenol red was pipetted into each of the wells of a 2-mL 96-well assay block. […] The wells were carefully mixed by pipette.
In a 15 mL or 50 mL sterile centrifuge tube, a dilution in DMEM/F12 of the adenovirus AdEasy+rAR at a moi of 1:50 per well was prepared.
The medium was removed from the 96-well plates by inversion and the plates dried very briefly, inverted, on a sterile towel. As soon as possible after medium removal, 40 μL of the diluted test compound was added to each well, in duplicate. […] The plates were then incubated for 48 hours at 37° C. in 5% (v/v) humidified CO2.
The medium was removed from the above incubated plates by inversion and dried. Each well was then washed with 0.35 mL of 1×PBS. The PBS was then removed from the plates by inversion and the plates dried.
To each well was then added 50 μL of 0.5% (v/v) Triton X-100 (Sigma) in 1×PBS and the plates placed on a rotary shaker for 5 min. The contents of each well were then transferred to an OptiPlate-96 (Packard) scintillation plate. To each well was then added 0.2 mL of Microscint-20 (Packard) and the wells counted on a TopCount (Packard).
Percent inhibition was determined by testing dilutions of the test compound (usually duplicates of 10 μM) in the binding assay. Counts per well were measured and percents of inhibition determined. […] Counts per well were measured and IC50s determined by linear regression.

The target of experiment [4] is T1, androgen receptor. The experiment is described as follows: Androgen Receptor Binding Using Rat Ventral Prostate Cytosol. The arrangement: from tissue; host or cells: ventral prostate cytosol of castrated male Sprague Dawley or Wistar rats. As to conditions: Rat Cytosol; Concentration 3000 nM. As for the experimental part:
Rat Prostate Cytosol Preparation:
Male Sprague Dawley or Wistar rats (Charles River, 200-300 g) were used for each preparation. The day before preparing the cytosol, the rats were castrated using standard surgical procedures.
The rats were euthanized by carbon dioxide asphyxiation. The rat prostates were quickly removed and placed on ice in pre-chilled, pre-weighed 50 mL plastic tubes. No more than five prostates were placed into one tube. The tubes were then weighed and the prostate tissue wet weights calculated.
To the chilled prostate tissue was then added […] of chilled homogenization buffer. The homogenization buffer was freshly prepared by mixing 10 mM Tris.HCl, pH 7.4, 1 mM sodium molybdate, 1.5 mM EDTA, 1 mM dithiothreitol, 10% (v/v) glycerol and 1% protease inhibitor cocktail (Sigma P 8340).
The prostate tissue was homogenized in a cold room using a pre-chilled Polytron PT3000 homogenizer (Brinkmann). Homogenization was performed at a speed setting of 20, three times for 10 sec bursts. The tubes containing the prostate tissue was kept on ice while homogenizing. The homogenate was allowed to rest on ice for 20 sec between bursts.
The homogenate was then placed into pre-chilled 3 mL polycarbonate ultracentrifuge tubes and centrifuged in the TLA-100 rotor of a TL-100 ultracentrifuge for 12 min at 100,000 rpm at 4° C. The resulting supernatant was stored in 1 mL aliquots at −80° C. until needed.
Binding to the androgen receptor was determined according to the protocol described in Example 86 using the above prepared rat cytosol.
% Inhibition was determined by testing dilutions of the test compound (usually duplicates of 10 μM) in the binding assay. Counts per well were measured and percents of inhibition determined. […] Counts per well were measured and IC50s determined by linear regression.

This note sets out measurements from patent publication US9434688B2, “Indole derivatives as selective androgen receptor modulators (SARMS)” (Janssen Pharmaceutica, NV, priority 2004, dated 2016).

For the molecule `CCSCC(C)(O)c1cc2cc(F)c(Cl)cc2[nH]1` (racemic) [compound 206], in experiment [1], the “active / inactive: inhibition of testosterone-enhanced prostate weight” value (from here on “active / inactive: inhibition”) is reported as “active”. In addition, the “% Activity” value on androgen receptor [2] was found to be 5%. Moreover, at androgen receptor [3], the “% Inhibition” value is on record as −40%.

In the case of `COc1ccc(S(=O)(=O)CC(C)(O)c2cc3cc(Cl)c(C(F)(F)F)cc3[nH]2)cc1` (racemic) [compound 129], the “% Inhibition” value at androgen receptor [4] was 39.5%; at androgen receptor [2] it was −8%; on androgen receptor [3], 10%. The “% Activity” value on androgen receptor [2] is −5%.

As for `COc1ccc(SCC(C)(O)c2cc3cc(Cl)c(C(F)(F)F)cc3n2S(C)(=O)=O)cc1` (racemic) [compound 130], the “% Inhibition” value on androgen receptor [4] is given as 32.55%; on androgen receptor [3] it was −8%. Besides, on androgen receptor [2], the “% Activity” value is −5%.

For the molecule `N#Cc1cc2cc(C3(O)CCSC3)[nH]c2cc1C(F)(F)F` (stereo not drawn) [Compound #15], in experiment [1], the “active / inactive: inhibition” value is “inactive”.

As for `CCSCC(C)(O)c1cc2cc(Cl)ccc2n1S(C)(=O)=O` (racemic) [compound 154], the “% Activity” value at androgen receptor [2] came to 2%. The “% Inhibition” value on androgen receptor [2] is recorded as 7%; at androgen receptor [3], 50%.

Regarding `OC1(c2cc3cc(Cl)c(C(F)(F)F)cc3[nH]2)CCSC1` (stereo not drawn) [compound 14], in experiment [1], the “active / inactive: inhibition” value was “inactive”.

In the case of `CCSCC(C)(O)c1cc2cc(C#N)c(Cl)cc2[nH]1` (stereo not drawn) [compound 225], the “active / inactive: inhibition” value in experiment [1] is “active”.

Turning to `CCSCC(C)(O)c1[nH]c2cc(C(F)(F)F)c([N+](=O)[O-])cc2c1C` (racemic) [compound 221], the “active / inactive: inhibition” value in experiment [1] was “inactive”. For the same molecule, the “% Activity” value at androgen receptor [2] is −1%.

`CC(O)(CSc1ccc(N)cc1)c1cc2cc(Cl)c(C(F)(F)F)cc2n1S(C)(=O)=O` (racemic) [compound 125]: the “% Activity” value on androgen receptor [2] was −5%. Further, on androgen receptor [3], the “% Inhibition” value came to 30%.

For `C[S+]([O-])CCC(C)(O)c1cc2cc([N+](=O)[O-])c(C(F)(F)F)cc2[nH]1` (mixture of isomers) [compound 50], the “% Activity” value at androgen receptor [2] amounted to 2%. The “% Inhibition” value on androgen receptor [3] was determined as 7%.

For `CSCC(C)(O)c1cc2cc([N+](=O)[O-])c(C(F)(F)F)cc2[nH]1` (stereo not drawn) [compound 139], the “active / inactive: inhibition” value in experiment [1] was “active”.

As for `CCSCC(C)(O)c1[nH]c2cc(C(F)(F)F)c(Br)cc2c1C` (stereo not drawn) [compound 220], on androgen receptor [3], the IC50 was 34 nM.

On to `CC(O)(CSCC(F)(F)F)c1cc2cc([N+](=O)[O-])c(C(F)(F)F)cc2[nH]1` (single isomer, unassigned) [compound 202], for which, at androgen receptor [2], the “% Activity” value came to 1%. Also, the “% Inhibition” value on androgen receptor [3] is on record as 50%.

As to `O=[N+]([O-])c1cc2cc(C3(O)CCSC3)[nH]c2cc1C(F)(F)F` (stereo not drawn) [compound 18], the “active / inactive: inhibition” value in experiment [1] is “inactive”.

Take `CC(O)(C[S+]([O-])Cc1ccccc1)c1cc2cc([N+](=O)[O-])c(C(F)(F)F)cc2[nH]1` (mixture of isomers) [compound 161]: the “% Inhibition” value at androgen receptor [4] is listed as 39%; on androgen receptor [3], 20%. For the same molecule, the “% Activity” value at androgen receptor [2] is 2%.
